From US12509453B2, “BRM/BRG1 inhibitors and uses thereof” (Foghorn Therapeutics Inc., priority 2019, dated 2025)

Legend:
[1] = target: T1, BRG-1 (Homo sapiens, UniProt P51532); assay: ATPase catalytic activity assay (ADP-Glo), BRG-1; type: biochemical; settings: 30 nM BRG-1, 400 μM ATP; for IC50: 20 nM salmon sperm DNA, read-out: BRG1 IP50 (μM)*; for Emax: read-out: BRG1 Max % Inhibition
T1 construct: made in house; host or cells: High Five insect cells
Method: (§1) The ATPase catalytic activity of BRM or BRG-1 was measured by the in vitro biochemical assay using ADP-Glo™ (Promega, V9102). The ADP-Glo™ kinase assay is performed in two steps once the reaction is complete. The first step is to deplete any unconsumed ATP in the reaction. The second step is to convert the reaction product ADP to ATP, which will be utilized by the luciferase to generate luminesce and be detected by a luminescence reader, such as Envision.
(§2) The assay reaction mixture (10 μL) contains 30 nM of BRM or BRG-1, 20 nM salmon sperm DNA (from Invitrogen, UltraPure™ Salmon Sperm DNA Solution, cat #15632011), and 400 μM of ATP in the ATPase assay buffer, which comprises of 20 mM Tris, pH 8, 20 mM MgCl2, 50 mM NaCl, 0.1% Tween-20, and 1 mM fresh DTT (Pierce™ DTT (Dithiothreitol), cat #20290). The reaction is initiated by the addition of the 2.5 μL ATPase solution to 2.5 μL ATP/DNA solution on low volume white Proxiplate-384 plus plate (PerkinElmer,cat #6008280) and incubates at room temperature for 1 hour. Then following addition of 5 μL of ADP-Glo™ Reagent provided in the kit, the reaction incubates at room temperature for 40 minutes. Then 10 μL of Kinase Detection Reagent provided in the kit is added to convert ADP to ATP, and the reaction incubates at room temperature for 60 minutes. Finally, luminescence measurement is collected with a plate-reading luminometer, such as Envision.
as §1, with “The” for “The ATPase catalytic activity of BRM or BRG-1 was measured by the in vitro biochemical assay using ADP-Glo™ (Promega, V9102). The”
as §2, with “BRG1,” for “BRG-1,”

[2] = target: T2, BRM (Homo sapiens, UniProt P51531); assay: ATPase catalytic activity assay (ADP-Glo), BRM; type: biochemical; settings: 30 nM BRM, 400 μM ATP; for IC50: 20 nM salmon sperm DNA, read-out: BRM IP50 (μM)*
T2 construct: made in house; host or cells: High Five insect cells
T2 sequence (P51531 whole entry): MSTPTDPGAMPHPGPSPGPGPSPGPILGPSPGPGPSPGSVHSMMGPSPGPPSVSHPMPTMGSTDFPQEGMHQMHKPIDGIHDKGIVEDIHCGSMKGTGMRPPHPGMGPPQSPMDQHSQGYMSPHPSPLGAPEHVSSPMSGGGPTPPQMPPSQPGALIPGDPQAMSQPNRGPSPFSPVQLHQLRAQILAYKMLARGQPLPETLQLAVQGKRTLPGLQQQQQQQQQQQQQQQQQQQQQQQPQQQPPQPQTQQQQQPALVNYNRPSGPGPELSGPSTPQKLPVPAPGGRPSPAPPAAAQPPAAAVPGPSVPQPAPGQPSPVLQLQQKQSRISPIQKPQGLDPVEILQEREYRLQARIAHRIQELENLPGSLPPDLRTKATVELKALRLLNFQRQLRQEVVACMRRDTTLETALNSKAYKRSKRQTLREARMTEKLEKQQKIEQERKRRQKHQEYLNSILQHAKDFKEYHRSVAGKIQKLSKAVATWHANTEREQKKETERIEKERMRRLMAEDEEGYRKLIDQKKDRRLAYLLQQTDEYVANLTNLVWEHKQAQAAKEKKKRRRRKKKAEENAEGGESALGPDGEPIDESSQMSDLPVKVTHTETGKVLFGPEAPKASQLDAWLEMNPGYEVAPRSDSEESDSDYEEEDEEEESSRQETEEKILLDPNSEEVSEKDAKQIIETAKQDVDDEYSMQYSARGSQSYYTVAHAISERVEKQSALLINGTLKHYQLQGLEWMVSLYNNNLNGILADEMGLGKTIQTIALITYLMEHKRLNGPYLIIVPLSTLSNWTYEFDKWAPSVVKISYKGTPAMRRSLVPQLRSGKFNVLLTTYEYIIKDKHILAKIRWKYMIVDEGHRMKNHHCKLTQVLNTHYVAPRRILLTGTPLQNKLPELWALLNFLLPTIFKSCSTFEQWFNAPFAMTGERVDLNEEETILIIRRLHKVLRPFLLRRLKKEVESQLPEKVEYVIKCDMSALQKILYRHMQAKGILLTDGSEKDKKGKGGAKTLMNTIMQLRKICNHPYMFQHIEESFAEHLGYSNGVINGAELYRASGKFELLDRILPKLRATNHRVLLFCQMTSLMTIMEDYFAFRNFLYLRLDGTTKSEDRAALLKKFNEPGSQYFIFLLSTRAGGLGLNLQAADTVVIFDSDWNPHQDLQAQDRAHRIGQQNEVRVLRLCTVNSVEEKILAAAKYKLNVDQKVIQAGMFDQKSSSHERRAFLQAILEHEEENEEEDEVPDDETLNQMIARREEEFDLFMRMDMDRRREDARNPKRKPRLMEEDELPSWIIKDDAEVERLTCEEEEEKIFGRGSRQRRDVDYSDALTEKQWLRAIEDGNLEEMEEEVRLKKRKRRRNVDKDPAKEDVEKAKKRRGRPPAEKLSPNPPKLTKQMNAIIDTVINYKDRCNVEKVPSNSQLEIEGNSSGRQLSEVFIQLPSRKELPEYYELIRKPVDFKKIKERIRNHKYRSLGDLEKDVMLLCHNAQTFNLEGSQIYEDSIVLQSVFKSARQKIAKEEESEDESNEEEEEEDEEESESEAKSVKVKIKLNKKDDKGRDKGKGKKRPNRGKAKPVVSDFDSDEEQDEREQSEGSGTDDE
Method: as §1, §2
as §1, with “The” for “The ATPase catalytic activity of BRM or BRG-1 was measured by the in vitro biochemical assay using ADP-Glo™ (Promega, V9102). The”
as §2, with “BRG1,” for “BRG-1,”

T1 sequence (P51532 whole entry): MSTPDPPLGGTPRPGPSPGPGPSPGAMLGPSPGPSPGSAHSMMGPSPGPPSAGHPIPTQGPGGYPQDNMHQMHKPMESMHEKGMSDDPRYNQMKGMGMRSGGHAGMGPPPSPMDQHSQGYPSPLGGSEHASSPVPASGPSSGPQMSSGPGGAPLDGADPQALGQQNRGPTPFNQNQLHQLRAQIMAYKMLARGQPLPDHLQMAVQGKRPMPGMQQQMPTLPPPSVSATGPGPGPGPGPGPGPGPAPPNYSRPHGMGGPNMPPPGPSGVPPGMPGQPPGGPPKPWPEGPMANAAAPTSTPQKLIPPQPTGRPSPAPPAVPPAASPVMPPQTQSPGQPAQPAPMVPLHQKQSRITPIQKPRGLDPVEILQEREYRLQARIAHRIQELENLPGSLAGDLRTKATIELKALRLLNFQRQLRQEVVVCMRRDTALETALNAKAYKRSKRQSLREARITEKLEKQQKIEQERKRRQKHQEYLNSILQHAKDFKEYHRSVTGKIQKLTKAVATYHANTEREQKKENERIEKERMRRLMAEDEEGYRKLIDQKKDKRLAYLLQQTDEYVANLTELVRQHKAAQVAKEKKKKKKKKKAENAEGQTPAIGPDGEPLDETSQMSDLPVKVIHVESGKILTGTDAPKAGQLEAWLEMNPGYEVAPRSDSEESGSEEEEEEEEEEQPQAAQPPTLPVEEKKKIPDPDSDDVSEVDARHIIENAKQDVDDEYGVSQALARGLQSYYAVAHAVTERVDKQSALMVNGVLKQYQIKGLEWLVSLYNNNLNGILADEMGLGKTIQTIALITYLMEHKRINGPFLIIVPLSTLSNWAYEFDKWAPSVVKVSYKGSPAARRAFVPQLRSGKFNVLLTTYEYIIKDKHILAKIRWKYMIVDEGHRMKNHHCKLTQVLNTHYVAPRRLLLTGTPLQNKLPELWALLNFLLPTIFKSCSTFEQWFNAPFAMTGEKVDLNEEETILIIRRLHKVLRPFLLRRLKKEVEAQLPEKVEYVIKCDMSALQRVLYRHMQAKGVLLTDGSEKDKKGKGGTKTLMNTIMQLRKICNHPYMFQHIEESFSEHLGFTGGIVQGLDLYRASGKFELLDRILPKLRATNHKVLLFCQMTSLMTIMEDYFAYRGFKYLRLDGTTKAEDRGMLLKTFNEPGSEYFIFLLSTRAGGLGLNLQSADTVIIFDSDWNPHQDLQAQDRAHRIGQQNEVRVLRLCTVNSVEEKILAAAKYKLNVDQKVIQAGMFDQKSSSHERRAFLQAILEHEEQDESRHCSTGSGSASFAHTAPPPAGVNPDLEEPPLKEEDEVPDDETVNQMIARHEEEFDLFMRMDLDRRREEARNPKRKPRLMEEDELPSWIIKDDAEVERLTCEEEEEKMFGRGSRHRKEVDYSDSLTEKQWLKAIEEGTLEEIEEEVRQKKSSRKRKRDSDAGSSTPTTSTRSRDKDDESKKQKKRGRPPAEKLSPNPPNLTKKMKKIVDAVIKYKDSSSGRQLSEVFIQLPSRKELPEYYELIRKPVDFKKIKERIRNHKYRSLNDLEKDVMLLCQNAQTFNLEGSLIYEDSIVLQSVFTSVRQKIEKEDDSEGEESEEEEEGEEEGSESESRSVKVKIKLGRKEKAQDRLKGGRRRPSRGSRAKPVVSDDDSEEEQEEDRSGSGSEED

Compound	IC50 [1]	Emax [1]	BRM Max % Inhibition [2]	IC50 [2]
Cc1cc(-c2cccc(-c3csc(NC(=O)CNC(=O)c4cn(S(C)(=O)=O)c5ccccc45)n3)c2)cc(C)n1 [Compound 33, N-(2-((4-(3-(2,6-dimethylpyridin-4-yl)phenyl)thiazol-2-yl)amino)-2-oxoethyl)-1-(methylsulfonyl)-1H-indole-3-carboxamide]	0.1 to 1 µM	> 90%	>95%	< 0.1 µM
Cc1nccc(-c2cccc(-c3csc(NC(=O)CNC(=O)c4cn(S(C)(=O)=O)c5c4CCCC5)n3)n2)n1 [Compound 18, N-(2-((4-(6-(2-methylpyrimidin-4-yl)pyridin-2-yl)thiazol-2-yl)amino)-2-oxoethyl)-1-(methylsulfonyl)-4,5,6,7-tetrahydro-1H-indole-3-carboxamide]	> 5 µM	< 30%	>70%	0.1 to 1 µM
Cc1cn(S(C)(=O)=O)cc1C(=O)NCC(=O)Nc1nc(-c2cccc(-c3ccncc3)c2)cs1 [Compound 9, 4-methyl-1-(methylsulfonyl)-N-(2-oxo-2-((4-(3-(pyridin-4-yl)phenyl)thiazol-2-yl)amino)ethyl)-1H-pyrrole-3-carboxamide]	< 0.1 µM	> 60%	>80%	< 0.1 µM
Cc1cc(-c2cccc(-c3csc(NC(=O)CNC(=O)c4cn(S(=O)(=O)C(C)C)c5ccccc45)n3)c2)cc(C)n1 [Compound 34, N-(2-((4-(3-(2,6-dimethylpyridin-4-yl)phenyl)thiazol-2-yl)amino)-2-oxoethyl)-1-(isopropylsulfonyl)-1H-indole-3-carboxamide]	1 to 5 µM	> 60%	>90%	< 0.1 µM
Cc1cc(-c2cccc(-c3csc(NC(=O)CNC(=O)c4cn(S(=O)(=O)C(C)C)c(C)c4C)n3)c2)nc(C)n1 [Compound 14]	0.1 to 1 µM	> 90%	>95%	< 0.1 µM
Cc1nccc(-c2cccc(-c3csc(NC(=O)CNC(=O)c4cc(Cl)n(S(=O)(=O)C(C)C)c4)n3)n2)n1 [Compound 24, 5-chloro-1-(isopropylsulfonyl)-N-(2-((4-(6-(2-methylpyrimidin-4-yl)pyridin-2-yl)thiazol-2-yl)amino)-2-oxoethyl)-1H-pyrrole-3-carboxamide]	> 5 µM	< 30%	>60%	0.1 to 1 µM
CNC(=O)CN(C)c1cc(-c2cccc(-c3csc(NC(=O)CNC(=O)c4cc(C)n(S(C)(=O)=O)c4)n3)c2)ccn1 [Compound 46, 5-methyl-N-(2-((4-(3-(2-(methyl(2-(methylamino)-2-oxoethyl)amino)pyridin-4-yl)phenyl)thiazol-2-yl)amino)-2-oxoethyl)-1-(methylsulfonyl)-1H-pyrrole-3-carboxamide]	< 0.1 µM			< 0.1 µM
CS(=O)(=O)n1cc(C(=O)NCC(=O)Nc2nc(-c3cccc(-c4ccncc4)c3)cs2)c2ccccc21 [Compound 1, 1-(methylsulfonyl)-N-(2-oxo-2-((4-(3-(pyridin-4-yl)phenyl)thiazol-2-yl)amino)ethyl)-1H-indole-3-carboxamide]	> 5 µM	< 30%	>70%	0.1 to 1 µM
CS(=O)(=O)n1cc(C(=O)NCC(=O)Nc2nc(-c3cccc(-c4ccncc4)c3)cs2)c2c1CCCC2 [Compound 5, 1-(methylsulfonyl)-N-(2-oxo-2-((4-(3-(pyridin-4-yl)phenyl)thiazol-2-yl)amino)ethyl)-4,5,6,7-tetrahydro-1 H-indole-3-carboxamide]	> 5 µM	< 30%	>60%	< 0.1 µM
Cc1cc(-c2cccc(-c3csc(NC(=O)CNC(=O)c4cn(S(=O)(=O)C(C)C)c(C)c4C)n3)c2)ccn1 [Compound 13, 1-(isopropylsulfonyl)-4,5-dimethyl-N-(2-((4-(3-(2-methylpyridin-4-yl)phenyl)thiazol-2-yl)amino)-2-oxoethyl)-1H-pyrrole-3-carboxamide]	1 to 5 µM	> 80%	>95%	0.1 to 1 µM
Cc1cc(-c2cccc(-c3csc(NC(=O)CNC(=O)c4cn(S(=O)(=O)C(C)C)c(C)c4C)n3)c2)cc(C)n1 [Compound 12, N-(2-((4-(3-(2,6-dimethylpyridin-4-yl)phenyl)thiazol-2-yl)amino)-2-oxoethyl)-1-(isopropylsulfonyl)-4,5-dimethyl-1H-pyrrole-3-carboxamide]	0.1 to 1 µM	> 80%	>95%	< 0.1 µM
Cc1cc(-c2cccc(-c3csc(NC(=O)CNC(=O)c4cc(C)n(S(=O)(=O)C(C)C)c4)n3)c2)cc(C)n1 [Compound 7, N-(2-((4-(3-(2,6-dimethylpyridin-4-yl)phenyl)thiazol-2-yl)amino)-2-oxoethyl)-1-(isopropylsulfonyl)-5-methyl-1H-pyrrole-3-carboxamide]	0.1 to 1 µM	> 95%	>95%	< 0.1 µM

The next lines start with the values.

IC50 [1]	Emax [1]	BRM Max % Inhibition [2]	IC50 [2]	Compound
1 to 5 µM	> 40%	>80%	0.1 to 1 µM	CC(C)S(=O)(=O)n1cc(C(=O)NCC(=O)Nc2nc(-c3cccc(N4C[C@@H](C)O[C@@H](C)C4)n3)cs2)cc1Cl [Compound 37, 5-chloro-N-(2-((4-(6-((cis)-2,6-dimethylmorpholino)pyridin-2-yl)thiazol-2-yl)amino)-2-oxoethyl)-1-(isopropylsulfonyl)-1H-pyrrole-3-carboxamide]
1 to 5 µM	> 50%	>90%	0.1 to 1 µM	Cc1cc(C(=O)NCC(=O)Nc2nc(-c3cccc(-c4ccn(C)n4)c3)cs2)cn1S(=O)(=O)C(C)C [Compound 6, 1-(isopropylsulfonyl)-5-methyl-N-(2-((4-(3-(1-methyl-1H-pyrazol-3-yl)phenyl)thiazol-2-yl)amino)-2-oxoethyl)-1H-pyrrole-3-carboxamide]
< 0.1 µM			< 0.1 µM	C[C@@H]1CN(c2cccc(-c3csc(NC(=O)CNC(=O)c4cc(Cl)n(S(C)(=O)=O)c4)n3)c2)C[C@H](C)O1 [Compound 44, 5-chloro-N-(2-((4-(3-((2R,6S)-2,6-dimethylmorpholino)phenyl)thiazol-2-yl)amino)-2-oxoethyl)-1-(methylsulfonyl)-1H-pyrrole-carboxamide]
0.1 to 1 µM	> 80%	>95%	0.1 to 1 µM	Cc1cc(-c2cccc(-c3csc(NC(=O)CNC(=O)c4cc(C5CC5)n(S(C)(=O)=O)c4)n3)c2)cc(C)n1 [Compound 19, 5-cyclopropyl-N-(2-((4-(3-(2,6-dimethylpyridin-4-yl)phenyl)thiazol-2-yl)amino)-2-oxoethyl)-1-(methylsulfonyl)-1H-pyrrole-3-carboxamide]
< 0.1 µM			< 0.1 µM	Cc1cc(C(=O)NCC(=O)Nc2nc(-c3cccc(-c4ccnc(N(C)CC(=O)O)c4)c3)cs2)cn1S(C)(=O)=O [Compound 45, N-methyl-N-(4-(3-(2-(2-(5-methyl-1-(methylsulfonyl)-1H-pyrrole-3-carboxamido)acetamido)thiazol-4-yl)phenyl)pyridin-2-yl)glycine]
1 to 5 µM	> 40%	>90%	0.1 to 1 µM	C[C@@H]1CN(c2cccc(-c3csc(NC(=O)CNC(=O)c4cn(S(C)(=O)=O)c5c4CCCC5)n3)c2)C[C@H](C)O1 [Compound 28, N-(2-((4-(3-((cis)-2,6-dimethylmorpholino)phenyl)thiazol-2-yl)amino)-2-oxoethyl)-1-(methylsulfonyl)-4,5,6,7-tetrahydro-1H-indole-3-carboxamide]
